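In this assay, cells in 96-well plates receive the compound at five concentrations for 48 hours. Endpoints are linearly interpolated between the surrounding concentrations. Abbreviation: GI50, concentration required for 50% inhibition of growth.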 Calls of active or inactive are those of the source. Rule as the data show it: active = GI50 up to about 1.1 µM and inactive = higher.
What was measured:
Assay in all cases: NCI-60 cell line screen, 48 h
[1] = test system: OVCAR-8
[2] = test system: NCI/ADR-RES
[3] = test system: SN12C
[4] = test system: HOP-92
[5] = test system: CAKI-1
[6] = test system: U-251
[7] = test system: NCI-H23
[8] = test system: NCI-H226
[9] = test system: SK-MEL-5
[10] = test system: OVCAR-4
[11] = test system: KM12
[12] = test system: OVCAR-5
[13] = test system: HOP-62
[14] = test system: SK-OV-3
[15] = test system: 786-0
[16] = test system: Malme-3M
[17] = test system: Hs-578T
[18] = test system: RXF 393

| Compound | GI50 [1] | GI50 [2] | GI50 [3] | GI50 [4] | GI50 [5] | GI50 [6] | GI50 [7] | GI50 [8] | GI50 [9] | GI50 [10] | GI50 [11] | GI50 [12] | GI50 [13] | GI50 [14] | GI50 [15] | GI50 [16] | GI50 [17] | GI50 [18] |
| --- | --- | --- | --- | --- | --- | --- | --- | --- | --- | --- | --- | --- | --- | --- | --- | --- | --- | --- |
| CC1=CC(=O)/C(=C/N2C(=O)CNC2=S)C(=O)O1 | > 100 µM (inactive) | > 100 µM (inactive) | > 100 µM (inactive) | > 100 µM (inactive) | > 100 µM (inactive) | > 100 µM (inactive) | > 100 µM (inactive) | > 100 µM (inactive) | > 100 µM (inactive) | > 100 µM (inactive) | > 100 µM (inactive) | > 100 µM (inactive) | > 100 µM (inactive) | > 100 µM (inactive) | > 100 µM (inactive) | – | – | – |
| C=CC(C)(C)c1c(OC)oc2ccc(OC)c(C)c2c1=O | > 100 µM (inactive) | 96.8 µM (inactive) | > 100 µM (inactive) | – | > 100 µM (inactive) | > 100 µM (inactive) | > 100 µM (inactive) | > 100 µM (inactive) | 61.7 µM (inactive) | – | > 100 µM (inactive) | > 100 µM (inactive) | > 100 µM (inactive) | > 100 µM (inactive) | > 100 µM (inactive) | > 100 µM (inactive) | > 100 µM (inactive) | – |
| OCC1(CNc2cc(Cl)ncn2)CCC1 | > 100 µM (inactive) | > 100 µM (inactive) | > 100 µM (inactive) | > 100 µM (inactive) | – | > 100 µM (inactive) | > 100 µM (inactive) | > 100 µM (inactive) | > 100 µM (inactive) | > 100 µM (inactive) | > 100 µM (inactive) | > 100 µM (inactive) | > 100 µM (inactive) | – | > 100 µM (inactive) | > 100 µM (inactive) | > 100 µM (inactive) | – |
| CCS(=O)(=O)c1c2cc(OC)ccc2nc2ccc(OC)cc12 | > 100 µM (inactive) | > 100 µM (inactive) | > 100 µM (inactive) | > 100 µM (inactive) | > 100 µM (inactive) | > 100 µM (inactive) | > 100 µM (inactive) | > 100 µM (inactive) | – | > 100 µM (inactive) | > 100 µM (inactive) | > 100 µM (inactive) | > 100 µM (inactive) | > 100 µM (inactive) | > 100 µM (inactive) | > 100 µM (inactive) | – | > 100 µM (inactive) |
| O=C1/C(=C/c2ccc(OC(=O)c3ccc(Cl)cc3)cc2)CCC/C1=C\c1ccc(OC(=O)c2ccc(Cl)cc2)cc1 | > 100 µM (inactive) | > 100 µM (inactive) | > 100 µM (inactive) | > 100 µM (inactive) | > 100 µM (inactive) | 64.3 µM (inactive) | > 100 µM (inactive) | – | > 100 µM (inactive) | > 100 µM (inactive) | > 100 µM (inactive) | > 100 µM (inactive) | 19.4 µM (inactive) | – | 55 µM (inactive) | – | 23.8 µM (inactive) | – |
| COc1ccc(C(=O)N2CCN(c3ccc4[nH]c(=O)oc4c3)CC2)cc1 | > 100 µM (inactive) | > 100 µM (inactive) | > 100 µM (inactive) | > 100 µM (inactive) | – | > 100 µM (inactive) | > 100 µM (inactive) | > 100 µM (inactive) | > 100 µM (inactive) | 84.1 µM (inactive) | > 100 µM (inactive) | > 100 µM (inactive) | > 100 µM (inactive) | > 100 µM (inactive) | > 100 µM (inactive) | 48.5 µM (inactive) | 58.5 µM (inactive) | – |
| CC(C)(C)NCc1cc(C(C)(C)C)cc(-c2ccc(Cl)cc2)c1O | – | 14.6 µM (inactive) | 15.2 µM (inactive) | 14.3 µM (inactive) | 12.6 µM (inactive) | 11.9 µM (inactive) | 12.6 µM (inactive) | – | 16.2 µM (inactive) | 16.5 µM (inactive) | 13.2 µM (inactive) | 13.8 µM (inactive) | 6.14 µM (inactive) | 17.1 µM (inactive) | 13.9 µM (inactive) | 13.8 µM (inactive) | 13.3 µM (inactive) | – |
| Cc1ccc(SCC(OCn2cnc3c(N)ncnc32)[C@H](C)F)cc1 (stereo partly drawn) | > 100 µM (inactive) | 73.1 µM (inactive) | > 100 µM (inactive) | 54.5 µM (inactive) | > 100 µM (inactive) | > 100 µM (inactive) | > 100 µM (inactive) | > 100 µM (inactive) | 41.4 µM (inactive) | > 100 µM (inactive) | > 100 µM (inactive) | > 100 µM (inactive) | > 100 µM (inactive) | > 100 µM (inactive) | > 100 µM (inactive) | > 100 µM (inactive) | > 100 µM (inactive) | – |
| O=C1CC(NCc2ccccc2)c2c(Cl)sc(Cl)c21 (stereo not drawn) | 18 µM (inactive) | 28.1 µM (inactive) | 26 µM (inactive) | 34.8 µM (inactive) | 23.2 µM (inactive) | 18.3 µM (inactive) | 17.4 µM (inactive) | 25.9 µM (inactive) | 27 µM (inactive) | 28.4 µM (inactive) | 29.9 µM (inactive) | 39.8 µM (inactive) | 29 µM (inactive) | > 74 µM (inactive) | 17.1 µM (inactive) | 18.5 µM (inactive) | 41.8 µM (inactive) | – |
| O=c1n(CCO)nc2n1CCCN2 | > 100 µM (inactive) | – | > 100 µM (inactive) | > 100 µM (inactive) | – | > 100 µM (inactive) | > 100 µM (inactive) | > 100 µM (inactive) | > 100 µM (inactive) | > 100 µM (inactive) | > 100 µM (inactive) | > 100 µM (inactive) | > 100 µM (inactive) | > 100 µM (inactive) | > 100 µM (inactive) | > 100 µM (inactive) | > 100 µM (inactive) | > 100 µM (inactive) |
| CCOC(=O)c1ccc(-c2cc(C)[nH]n2)[nH]1 | > 100 µM (inactive) | > 100 µM (inactive) | > 100 µM (inactive) | > 100 µM (inactive) | > 100 µM (inactive) | > 100 µM (inactive) | > 100 µM (inactive) | > 100 µM (inactive) | > 100 µM (inactive) | > 100 µM (inactive) | 62.5 µM (inactive) | > 100 µM (inactive) | > 100 µM (inactive) | > 100 µM (inactive) | > 100 µM (inactive) | > 100 µM (inactive) | – | > 100 µM (inactive) |
| Cc1ccc(S(=O)(=O)N2C3C=CC(C3)[C@@H]2C(Cl)(Cl)Cl)cc1 (stereo partly drawn) | 15.7 µM (inactive) | 9.51 µM (inactive) | 24.2 µM (inactive) | 10.1 µM (inactive) | 13.3 µM (inactive) | 15 µM (inactive) | 27.2 µM (inactive) | 15 µM (inactive) | 19.3 µM (inactive) | 15.2 µM (inactive) | 20.3 µM (inactive) | 0.0391 µM (active) | 10.4 µM (inactive) | – | 10 µM (inactive) | 18.9 µM (inactive) | 5.07 µM (inactive) | – |
| COC(=O)c1cc(/C=C\c2cc(OC)ccc2OC)ccc1OC | 36.4 µM (inactive) | 37.3 µM (inactive) | 38.2 µM (inactive) | – | 33.3 µM (inactive) | 32.3 µM (inactive) | 43.3 µM (inactive) | – | 17.7 µM (inactive) | 33.6 µM (inactive) | 29.2 µM (inactive) | 39.4 µM (inactive) | 25.6 µM (inactive) | 37.3 µM (inactive) | 35.1 µM (inactive) | – | 40.4 µM (inactive) | – |

Reference: ChEMBL document CHEMBL1201862, “PubChem BioAssay data set” (2004)
